# Measured values as given in patent publication US5869494A, “Uses for barbituric acid analogs” (priority 1997, dated 1999).
# Where two headings read alike, the source gives them in different places.
# Legend:
# Type in all cases: cell-based
# [1] = system: MCF-7 human breast cancer cells; assay: Cytotoxicity for breast cancer cell line MCF-7 (MTT assay); conditions: read-out: Percent cell kill; for cytotoxicity at 100 µg/mL: 100 μg/ml; for cytotoxicity at 150 µg/mL: 150 μg/ml; for cytotoxicity at 200 µg/mL: 200 μg/ml
# Procedure: (§1) In the following examples, tumor cells were treated with varying concentrations of compounds C1, C2, C4 or C5 dissolved in absolute ethanol. To limit any non-specific toxicity, the final concentration of ethanol was not allowed to exceed 0.5%. Stock concentrations of 5 mg/ml or 20 mg/ml were used. Viability of cells was determined in some studies by the trypan blue dye exclusion method. In other studies, cell viability/proliferation activity was determined by MTT assay by using a kit obtained from Promega, (Promega Corp., Madison, Wis. 53711). For this assay, a 100 μl cell suspension containing 5-10^3 monolayer cells or 1×10^5 suspension cells was placed in the wells of a 96-well microtiter plate. After overnight incubation, cells were treated with different concentrations of the test compound. Control wells received vehicle only. After 24, 48, 72 or 96 h of incubation, 50 μl of MTT dye solution was added. After 4 h of incubation at 37° C., 100 μl of solubilization/stop solution was added. After another h of incubation, cells were mixed using a multi-channel pipet and the absorption of the dye color was recorded at 570 nm using a plate reading absorption spectrophotometer.
# (§2) After the incubation period, viability of the cells was determined by MTT assay (Promega Corp., Madison, Wis. 53711).
# [2] = system: Daudi human lymphoma cells; assay: Cytotoxicity for lymphoma cells (Daudi); conditions: Homo sapiens, Daudi; for cytotoxicity at 100 µg/mL: 100 μg/ml; for cytotoxicity at 150 µg/mL: 150 μg/ml, read-out: % Cytotoxicity; for cytotoxicity at 200 µg/mL: 200 μg/ml
# Procedure: as §1
# The viability of the cells was
# Compounds C4 and C5 were also tested for toxicity against human lymphoma Daudi cells.
# [3] = system: DU-145 human prostate cancer cells; assay: Cytotoxicity for prostate cancer cell line DU-145 (MTT assay); conditions: read-out: Percent cell kill; for cytotoxicity at 100 µg/mL: 100 μg/ml; for cytotoxicity at 150 µg/mL: 150 μg/ml; for cytotoxicity at 200 µg/mL: 200 μg/ml
# Procedure: as §1, §2
# [4] = system: L1210 mouse leukemia cells; assay: Cytotoxicity for leukemia cells (L1210); conditions: for cytotoxicity at 100 µg/mL / cytotoxicity at 150 µg/mL / cytotoxicity at 200 µg/mL: Mus musculus; for cytotoxicity at 100 µg/mL: 100 μg/ml; for cytotoxicity at 150 µg/mL: 150 μg/ml
# Procedure: as §1
# The viability of the cells was […]
# [5] = system: BT-20 human breast cancer cells; assay: Cytotoxicity for breast cancer cell line BT-20 (MTT assay); conditions: read-out: Percent cell kill; for cytotoxicity at 100 µg/mL: 100 μg/ml; for cytotoxicity at 150 µg/mL: 150 μg/ml; for cytotoxicity at 200 µg/mL: 200 μg/ml
# Procedure: as §1, §2
# [6] = system: PC-3 human prostate cancer cells; assay: Cytotoxicity for prostate cancer cell line PC-3 (MTT assay); conditions: read-out: Percent cell kill; for cytotoxicity at 100 µg/mL: 100 μg/ml; for cytotoxicity at 150 µg/mL: 150 μg/ml; for cytotoxicity at 200 µg/mL: 200 μg/ml
# Procedure: as §1, §2
smiles,measurement,setting,value
"CCCCN1C(=O)C(=O)C(=O)N(CCCC)C1=S [Compound C2, 4,5,6(1H)-pyrimidinetrione, 1,3-dibutyldihydro-2-thioxo]",cytotoxicity at 100 µg/mL,"[1]; MCF7, 24 h, 24 hr",9 ± 7%
same,cytotoxicity at 150 µg/mL,"[1]; MCF7, 24 h, 24 hr",26.3 ± 7.9%
same,cytotoxicity at 200 µg/mL,"[1]; MCF7, 24 h, 24 hr",40 ± 10.6%
same,cytotoxicity at 100 µg/mL,"[1]; MCF7, 48 h, 48 hr",16.3 ± 4.8%
same,cytotoxicity at 150 µg/mL,"[1]; MCF7, 48 h, 48 hr",43.3 ± 7.3%
same,cytotoxicity at 200 µg/mL,"[1]; MCF7, 48 h, 48 hr",70.3 ± 7.8%
same,cytotoxicity at 100 µg/mL,"[1]; MCF7, 72 h, 72 hr",33.3 ± 5.4%
same,cytotoxicity at 150 µg/mL,"[1]; MCF7, 72 h, 72 hr",61 ± 5.6%
same,cytotoxicity at 200 µg/mL,"[1]; MCF7, 72 h, 72 hr",81.3 ± 3.2%
same,cytotoxicity at 100 µg/mL,"[1]; MCF7, 96 h, 96 hr",87.7 ± 0.6%
same,cytotoxicity at 150 µg/mL,"[1]; MCF7, 96 h, 96 hr",97 ± 0.8%
same,cytotoxicity at 200 µg/mL,"[1]; MCF7, 96 h, 96 hr",94.3 ± 2.1%
same,cytotoxicity at 100 µg/mL,[2]; 24 h,57.5 ± 3%
same,cytotoxicity at 150 µg/mL,"[2]; 24 h, 24 hr",81.3 ± 4%
same,cytotoxicity at 200 µg/mL,[2]; 24 h,93.2 ± 3.3%
same,cytotoxicity at 100 µg/mL,[2]; 48 h,41.5%
same,cytotoxicity at 150 µg/mL,"[2]; 48 h, 48 hr",92%
same,cytotoxicity at 200 µg/mL,[2]; 48 h,88%
same,cytotoxicity at 100 µg/mL,"[3]; DU-145, 24 h, 24 hr",0%
same,cytotoxicity at 150 µg/mL,"[3]; DU-145, 24 h, 24 hr",0%
same,cytotoxicity at 200 µg/mL,"[3]; DU-145, 24 h, 24 hr",0%
same,cytotoxicity at 100 µg/mL,"[3]; DU-145, 48 h, 48 hr",0%
same,cytotoxicity at 150 µg/mL,"[3]; DU-145, 48 h, 48 hr",4.2 ± 3.9%
same,cytotoxicity at 200 µg/mL,"[3]; DU-145, 48 h, 48 hr",20 ± 3%
same,cytotoxicity at 100 µg/mL,"[3]; DU-145, 72 h, 72 hr",0%
same,cytotoxicity at 150 µg/mL,"[3]; DU-145, 72 h, 72 hr",9.2 ± 5.3%
same,cytotoxicity at 200 µg/mL,"[3]; DU-145, 72 h, 72 hr",36.7 ± 2.1%
same,cytotoxicity at 100 µg/mL,"[3]; DU-145, 96 h, 96 hr",10 ± 6.1%
same,cytotoxicity at 150 µg/mL,"[3]; DU-145, 96 h, 96 hr",25.2 ± 7.4%
same,cytotoxicity at 200 µg/mL,"[3]; DU-145, 96 h, 96 hr",43.7 ± 4.3%
same,% Cytotoxicity,"[4]; 200 μg/ml, 24 hr, 1440 min",> 58%
same,cytotoxicity at 100 µg/mL,"[4]; L1210, 24 h, 24 hr",33.2 ± 2%
same,cytotoxicity at 150 µg/mL,"[4]; L1210, 24 h, 24 hr",50 ± 4.1%
same,cytotoxicity at 200 µg/mL,"[4]; L1210, 24 h, 200 μg/ml, 24 hr",58.7 ± 2.6%
same,cytotoxicity at 100 µg/mL,"[4]; L1210, 48 h, 48 hr",29 ± 3.5%
same,cytotoxicity at 150 µg/mL,"[4]; L1210, 48 h, 48 hr",53.7 ± 2.5%
same,cytotoxicity at 200 µg/mL,"[4]; L1210, 48 h, 200 μg/ml, 48 hr",72.5 ± 2.4%
same,cytotoxicity at 100 µg/mL,"[5]; BT-20, 24 h, 24 hr",29.8 ± 6.8%
same,cytotoxicity at 150 µg/mL,"[5]; BT-20, 24 h, 24 hr",30 ± 4.4%
same,cytotoxicity at 200 µg/mL,"[5]; BT-20, 24 h, 24 hr",30.3 ± 2.9%
same,cytotoxicity at 100 µg/mL,"[5]; BT-20, 48 h, 48 hr",51.8 ± 1.9%
same,cytotoxicity at 150 µg/mL,"[5]; BT-20, 48 h, 48 hr",50 ± 1.7%
same,cytotoxicity at 200 µg/mL,"[5]; BT-20, 48 h, 48 hr",55.5 ± 8.9%
same,cytotoxicity at 100 µg/mL,"[5]; BT-20, 72 h, 72 hr",57.5 ± 2.6%
same,cytotoxicity at 150 µg/mL,"[5]; BT-20, 72 h, 72 hr",60.8 ± 2.8%
same,cytotoxicity at 200 µg/mL,"[5]; BT-20, 72 h, 72 hr",68.5 ± 3.4%
same,cytotoxicity at 100 µg/mL,"[5]; BT-20, 96 h, 96 hr",99.9%
same,cytotoxicity at 150 µg/mL,"[5]; BT-20, 96 h, 96 hr",99.9%
same,cytotoxicity at 200 µg/mL,"[5]; BT-20, 96 h, 96 hr",99.9%
same,cytotoxicity at 100 µg/mL,"[6]; 24 h, 24 hr",32.7 ± 6.2%
same,cytotoxicity at 150 µg/mL,"[6]; 24 h, 24 hr",47 ± 6.7%
same,cytotoxicity at 200 µg/mL,"[6]; 24 h, 24 hr",57.5 ± 3.5%
same,cytotoxicity at 100 µg/mL,"[6]; 48 h, 48 hr",46.2 ± 4.1%
same,cytotoxicity at 150 µg/mL,"[6]; 48 h, 48 hr",70.7 ± 6%
same,cytotoxicity at 200 µg/mL,"[6]; 48 h, 48 hr",81.5 ± 3.1%
same,cytotoxicity at 100 µg/mL,"[6]; 72 h, 72 hr",51.5 ± 6.5%
same,cytotoxicity at 150 µg/mL,"[6]; 72 h, 72 hr",77.7 ± 4.6%
same,cytotoxicity at 200 µg/mL,"[6]; 72 h, 72 hr",88.5 ± 5.2%
same,cytotoxicity at 100 µg/mL,"[6]; 96 h, 96 hr",75 ± 1%
same,cytotoxicity at 150 µg/mL,"[6]; 96 h, 96 hr",88.7 ± 3.2%
same,cytotoxicity at 200 µg/mL,"[6]; 96 h, 96 hr",95 ± 3.6%
